Columns and labels:
Experiment in all cases: Kinase activity detection (Eurofins)
Assay type in all cases: biochemical
[1] = target: T1, ARK5 (Homo sapiens, UniProt O60285); conditions: ZY0511 1 µM
T1 construct: purchased Eurofins Pharma Discovery Services (KinaseProfiler)
Procedure: (§1) The activity of ZY0511 against 104 cancer‐related kinases was carried out by Eurofins Pharma Discovery Services (Celle Lévescault, France).

[2] = target: T2, ATR/ATRIP (Homo sapiens, UniProt Q13535)
T2 construct: purchased Eurofins Pharma Discovery Services
Procedure: as §1

[3] = target: T3, Blk (Homo sapiens, UniProt P51451); conditions: ZY0511 1 µM, read-out: Inhibition rate
T3 construct: purchased Eurofins Pharma Discovery Services (KinaseProfiler)
Procedure: as §1

[4] = target: T4, CHK2 (Homo sapiens, UniProt O96017); conditions: ZY0511 1 µM, read-out: Activation rate
T4 construct: purchased Eurofins Pharma Discovery Services (KinaseProfiler)
Procedure: as §1

[5] = target: T5, CK1γ1 (Homo sapiens, UniProt Q9HCP0); conditions: ZY0511 1 µM, read-out: Inhibition rate
T5 construct: purchased Eurofins Pharma Discovery Services
Procedure: as §1

[6] = target: T6, CK1γ2 (Homo sapiens, UniProt P78368); conditions: ZY0511 1 µM, read-out: Inhibition rate
T6 construct: purchased Eurofins Pharma Discovery Services
Procedure: as §1

[7] = target: T7, DYRK2 (Homo sapiens, UniProt Q92630); conditions: ZY0511 1 µM, read-out: Inhibition rate
T7 construct: purchased Eurofins Pharma Discovery Services (KinaseProfiler)
Procedure: as §1

[8] = target: T8, EGFR (L861Q) (Homo sapiens, UniProt P00533, L861Q); conditions: ZY0511 1 µM, read-out: Inhibition rate
T8 construct: purchased Eurofins Pharma Discovery Services (KinaseProfiler)
Procedure: as §1

[9] = target: T9, EGFR (T790M) (Homo sapiens, UniProt P00533, T790M); conditions: ZY0511 1 µM
T9 construct: purchased Eurofins Pharma Discovery Services (KinaseProfiler)
Procedure: as §1

[10] = target: T10, EGFR (T790M, L858R) (Homo sapiens, UniProt P00533, L858R/T790M); conditions: ZY0511 1 µM
T10 construct: purchased Eurofins Pharma Discovery Services (KinaseProfiler)
Procedure: as §1

[11] = target: T11, EphA7 (Rattus norvegicus, UniProt P54759); conditions: ZY0511 1 µM, read-out: Inhibition rate
T11 construct: purchased Eurofins Pharma Discovery Services
Procedure: as §1

[12] = target: T12, FGFR3 (Homo sapiens, UniProt P22607); conditions: ZY0511 1 µM, read-out: Inhibition rate
T12 construct: purchased Eurofins Pharma Discovery Services (KinaseProfiler)
Procedure: as §1

[13] = target: T13, FGFR4 (Homo sapiens, UniProt P22455); conditions: ZY0511 1 µM, read-out: Inhibition rate
T13 construct: purchased Eurofins Pharma Discovery Services
Procedure: as §1

[14] = target: T14, Fer (Homo sapiens, UniProt P16591); conditions: ZY0511 1 µM, read-out: Inhibition rate
T14 construct: purchased Eurofins Pharma Discovery Services (KinaseProfiler)
Procedure: as §1

[15] = target: T15, Fes (Homo sapiens, UniProt P07332); conditions: ZY0511 1 µM, read-out: Inhibition rate
T15 construct: purchased Eurofins Pharma Discovery Services (KinaseProfiler)
Procedure: as §1

[16] = target: T16, Flt3 (D835Y) (Homo sapiens, UniProt P36888, D835Y); conditions: ZY0511 1 µM, read-out: Inhibition rate
T16 construct: purchased Eurofins Pharma Discovery Services
Procedure: as §1

[17] = target: T17, Flt3 (Homo sapiens, UniProt P36888); conditions: ZY0511 1 µM, read-out: Inhibition rate
T17 construct: purchased Eurofins Pharma Discovery Services (KinaseProfiler)
Procedure: as §1

[18] = target: T18, Fms (Homo sapiens, UniProt P07333); conditions: ZY0511 1 µM, read-out: Inhibition rate
T18 construct: purchased Eurofins Pharma Discovery Services (KinaseProfiler)
Procedure: as §1

[19] = target: T19, HIPK2 (Homo sapiens, UniProt Q9H2X6); conditions: ZY0511 1 µM, read-out: Inhibition rate
T19 construct: purchased Eurofins Pharma Discovery Services
Procedure: as §1

[20] = target: T20, KDR (Homo sapiens, UniProt P35968); conditions: ZY0511 1 µM, read-out: Inhibition rate
T20 construct: purchased Eurofins Pharma Discovery Services (KinaseProfiler)
Procedure: as §1

[21] = target: T21, LKB1 (Homo sapiens, UniProt Q15831); conditions: ZY0511 1 µM, read-out: Inhibition rate
T21 construct: purchased Eurofins Pharma Discovery Services (KinaseProfiler)
Procedure: as §1

[22] = target: T22, MEK1 (Homo sapiens, UniProt Q02750); conditions: ZY0511 1 µM, read-out: Inhibition rate
T22 construct: purchased Eurofins Pharma Discovery Services (KinaseProfiler)
Procedure: as §1

[23] = target: T23, MST3 (Homo sapiens, UniProt Q9Y6E0); conditions: ZY0511 1 µM, read-out: Inhibition rate
T23 construct: purchased Eurofins Pharma Discovery Services (KinaseProfiler)
Procedure: as §1

[24] = target: T24, Mer (Homo sapiens, UniProt Q12866); conditions: ZY0511 1 µM, read-out: Activation rate
T24 construct: purchased Eurofins Pharma Discovery Services (KinaseProfiler)
Procedure: as §1

[25] = target: T25, Met (Homo sapiens, UniProt P08581); conditions: ZY0511 1 µM, read-out: Inhibition rate
T25 construct: purchased Eurofins Pharma Discovery Services (KinaseProfiler)
Procedure: as §1

[26] = target: T26, NIM1 (Homo sapiens, UniProt Q8IY84); conditions: ZY0511 1 µM, read-out: Inhibition rate
T26 construct: purchased Eurofins Pharma Discovery Services
Procedure: as §1

[27] = target: T27, PDGFRα (D842V) (Homo sapiens, UniProt P16234, D842V); conditions: ZY0511 1 µM, read-out: Activation rate
T27 construct: purchased Eurofins Pharma Discovery Services (KinaseProfiler)
Procedure: as §1

[28] = target: T28, PDK1 (Homo sapiens, UniProt O15530); conditions: ZY0511 1 µM, read-out: Inhibition rate
T28 construct: purchased Eurofins Pharma Discovery Services (KinaseProfiler)
Procedure: as §1

[29] = target: T29, PI3 Kinase (p110α (E545K)/p85α) (Homo sapiens, UniProt P42336, E545K); conditions: ZY0511 1 µM, read-out: Inhibition rate
T29 construct: purchased Eurofins Pharma Discovery Services (KinaseProfiler)
Procedure: as §1

[30] = target: T30, PI3 Kinase (p120γ) (Homo sapiens, UniProt P48736); conditions: ZY0511 1 µM, read-out: Inhibition rate
T30 construct: purchased Eurofins Pharma Discovery Services (KinaseProfiler)
Procedure: as §1

[31] = target: T31, PKCα (Homo sapiens, UniProt P17252); conditions: ZY0511 1 µM, read-out: Activation rate
T31 construct: purchased Eurofins Pharma Discovery Services (KinaseProfiler)
Procedure: as §1

[32] = target: T32, PKCη (Homo sapiens, UniProt P24723); conditions: ZY0511 1 µM, read-out: Activation rate
T32 construct: purchased Eurofins Pharma Discovery Services (KinaseProfiler)
Procedure: as §1

[33] = target: T33, PKD2 (Homo sapiens, UniProt Q9BZL6); conditions: ZY0511 1 µM, read-out: Inhibition rate
T33 construct: purchased Eurofins Pharma Discovery Services
Procedure: as §1

[34] = target: T34, Snk (Homo sapiens, UniProt Q9NYY3); conditions: ZY0511 1 µM, read-out: Inhibition rate
T34 construct: purchased Eurofins Pharma Discovery Services (KinaseProfiler)
Procedure: as §1

[35] = target: T35, TAK1 (Homo sapiens, UniProt O43318); conditions: ZY0511 1 µM, read-out: Inhibition rate
T35 construct: purchased Eurofins Pharma Discovery Services
Procedure: as §1

[36] = target: T36, Tie2 (Homo sapiens, UniProt Q02763); conditions: ZY0511 1 µM, read-out: Inhibition rate
T36 construct: purchased Eurofins Pharma Discovery Services (KinaseProfiler)
Procedure: as §1

[37] = target: T37, Wee1 (Homo sapiens, UniProt P30291); conditions: ZY0511 1 µM, read-out: Activation rate
T37 construct: purchased Eurofins Pharma Discovery Services (KinaseProfiler)
Procedure: as §1

[38] = target: T38, Yes (Homo sapiens, UniProt P07947); conditions: ZY0511 1 µM, read-out: Inhibition rate
T38 construct: purchased Eurofins Pharma Discovery Services
Procedure: as §1

[39] = target: T39, cKit (D816H) (Homo sapiens, UniProt P10721, D816H); conditions: ZY0511 1 µM, read-out: Activation rate
T39 construct: purchased Eurofins Pharma Discovery Services (KinaseProfiler)
Procedure: as §1

[40] = target: T40, cKit (V560G) (Homo sapiens, UniProt P10721, V560G); conditions: ZY0511 1 µM, read-out: Inhibition rate
T40 construct: purchased Eurofins Pharma Discovery Services (KinaseProfiler)
Procedure: as §1

[41] = target: T41, p70S6K (Homo sapiens, UniProt P23443); conditions: ZY0511 1 µM, read-out: Inhibition rate
T41 construct: purchased Eurofins Pharma Discovery Services
Procedure: as §1

T2 sequence (Q13535 whole entry): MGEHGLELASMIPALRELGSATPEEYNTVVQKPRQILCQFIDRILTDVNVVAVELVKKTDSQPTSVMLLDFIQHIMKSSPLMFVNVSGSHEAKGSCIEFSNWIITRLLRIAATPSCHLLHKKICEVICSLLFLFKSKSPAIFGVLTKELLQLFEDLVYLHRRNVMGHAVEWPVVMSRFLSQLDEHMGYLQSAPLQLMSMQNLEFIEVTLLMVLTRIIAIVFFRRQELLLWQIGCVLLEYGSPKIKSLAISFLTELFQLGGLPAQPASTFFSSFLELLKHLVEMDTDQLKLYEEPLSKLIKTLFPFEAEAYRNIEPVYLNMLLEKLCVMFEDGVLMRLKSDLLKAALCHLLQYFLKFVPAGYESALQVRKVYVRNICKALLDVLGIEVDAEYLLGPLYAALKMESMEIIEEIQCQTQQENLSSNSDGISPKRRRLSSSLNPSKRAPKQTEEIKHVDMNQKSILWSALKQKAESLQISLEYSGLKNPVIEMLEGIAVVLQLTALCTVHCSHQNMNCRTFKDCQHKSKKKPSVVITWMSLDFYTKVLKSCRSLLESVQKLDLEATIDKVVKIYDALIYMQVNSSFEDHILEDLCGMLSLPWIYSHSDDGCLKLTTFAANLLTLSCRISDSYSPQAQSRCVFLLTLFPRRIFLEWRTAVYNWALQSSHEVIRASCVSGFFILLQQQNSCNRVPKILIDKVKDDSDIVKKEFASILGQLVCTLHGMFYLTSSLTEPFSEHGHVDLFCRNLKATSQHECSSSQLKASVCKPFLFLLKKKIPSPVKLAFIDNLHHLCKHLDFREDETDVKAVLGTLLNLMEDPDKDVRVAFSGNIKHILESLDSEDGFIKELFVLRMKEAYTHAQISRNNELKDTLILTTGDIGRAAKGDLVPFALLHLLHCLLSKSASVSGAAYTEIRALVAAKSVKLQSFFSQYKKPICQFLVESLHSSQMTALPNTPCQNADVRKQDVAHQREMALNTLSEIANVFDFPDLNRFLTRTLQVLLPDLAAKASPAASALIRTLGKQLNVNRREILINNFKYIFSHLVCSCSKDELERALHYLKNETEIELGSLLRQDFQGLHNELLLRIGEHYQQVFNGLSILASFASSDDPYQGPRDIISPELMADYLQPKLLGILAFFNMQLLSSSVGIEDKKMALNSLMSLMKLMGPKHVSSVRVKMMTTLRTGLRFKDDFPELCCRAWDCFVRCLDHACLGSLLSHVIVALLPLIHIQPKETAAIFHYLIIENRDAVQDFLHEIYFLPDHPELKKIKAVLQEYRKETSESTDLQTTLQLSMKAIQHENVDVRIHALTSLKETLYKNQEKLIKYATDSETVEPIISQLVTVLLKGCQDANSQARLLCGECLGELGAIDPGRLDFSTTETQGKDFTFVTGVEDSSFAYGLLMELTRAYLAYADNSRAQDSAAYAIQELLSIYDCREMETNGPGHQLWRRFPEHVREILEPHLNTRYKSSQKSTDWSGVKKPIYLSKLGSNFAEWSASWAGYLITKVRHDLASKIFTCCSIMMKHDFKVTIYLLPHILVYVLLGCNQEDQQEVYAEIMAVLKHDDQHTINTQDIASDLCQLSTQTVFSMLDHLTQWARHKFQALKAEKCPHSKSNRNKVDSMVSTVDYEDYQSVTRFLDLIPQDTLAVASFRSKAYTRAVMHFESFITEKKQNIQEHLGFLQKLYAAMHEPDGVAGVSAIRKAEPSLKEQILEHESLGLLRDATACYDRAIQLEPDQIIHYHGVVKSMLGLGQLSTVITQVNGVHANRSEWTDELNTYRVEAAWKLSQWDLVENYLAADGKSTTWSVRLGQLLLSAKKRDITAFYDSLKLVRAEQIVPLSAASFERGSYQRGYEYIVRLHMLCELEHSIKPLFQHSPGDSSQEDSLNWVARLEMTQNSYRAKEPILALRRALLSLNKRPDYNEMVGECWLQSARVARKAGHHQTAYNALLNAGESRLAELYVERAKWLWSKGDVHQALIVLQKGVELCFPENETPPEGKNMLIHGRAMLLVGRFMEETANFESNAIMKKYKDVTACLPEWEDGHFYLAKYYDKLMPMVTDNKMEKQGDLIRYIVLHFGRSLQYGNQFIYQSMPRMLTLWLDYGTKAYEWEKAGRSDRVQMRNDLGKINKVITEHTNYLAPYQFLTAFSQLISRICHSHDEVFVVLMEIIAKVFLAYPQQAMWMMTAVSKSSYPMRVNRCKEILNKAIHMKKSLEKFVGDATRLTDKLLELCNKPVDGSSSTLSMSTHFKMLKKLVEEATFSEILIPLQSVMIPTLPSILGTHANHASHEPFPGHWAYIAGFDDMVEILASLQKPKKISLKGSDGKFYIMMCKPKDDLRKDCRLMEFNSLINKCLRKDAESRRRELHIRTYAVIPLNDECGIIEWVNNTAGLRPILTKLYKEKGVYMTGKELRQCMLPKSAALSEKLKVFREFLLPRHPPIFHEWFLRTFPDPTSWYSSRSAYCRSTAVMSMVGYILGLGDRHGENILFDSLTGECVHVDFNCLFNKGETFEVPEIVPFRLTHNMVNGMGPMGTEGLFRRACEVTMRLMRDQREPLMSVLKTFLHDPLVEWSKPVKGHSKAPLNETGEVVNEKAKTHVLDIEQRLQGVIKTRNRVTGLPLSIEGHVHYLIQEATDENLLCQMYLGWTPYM
T2 sequence (Q8WXE1 whole entry partner): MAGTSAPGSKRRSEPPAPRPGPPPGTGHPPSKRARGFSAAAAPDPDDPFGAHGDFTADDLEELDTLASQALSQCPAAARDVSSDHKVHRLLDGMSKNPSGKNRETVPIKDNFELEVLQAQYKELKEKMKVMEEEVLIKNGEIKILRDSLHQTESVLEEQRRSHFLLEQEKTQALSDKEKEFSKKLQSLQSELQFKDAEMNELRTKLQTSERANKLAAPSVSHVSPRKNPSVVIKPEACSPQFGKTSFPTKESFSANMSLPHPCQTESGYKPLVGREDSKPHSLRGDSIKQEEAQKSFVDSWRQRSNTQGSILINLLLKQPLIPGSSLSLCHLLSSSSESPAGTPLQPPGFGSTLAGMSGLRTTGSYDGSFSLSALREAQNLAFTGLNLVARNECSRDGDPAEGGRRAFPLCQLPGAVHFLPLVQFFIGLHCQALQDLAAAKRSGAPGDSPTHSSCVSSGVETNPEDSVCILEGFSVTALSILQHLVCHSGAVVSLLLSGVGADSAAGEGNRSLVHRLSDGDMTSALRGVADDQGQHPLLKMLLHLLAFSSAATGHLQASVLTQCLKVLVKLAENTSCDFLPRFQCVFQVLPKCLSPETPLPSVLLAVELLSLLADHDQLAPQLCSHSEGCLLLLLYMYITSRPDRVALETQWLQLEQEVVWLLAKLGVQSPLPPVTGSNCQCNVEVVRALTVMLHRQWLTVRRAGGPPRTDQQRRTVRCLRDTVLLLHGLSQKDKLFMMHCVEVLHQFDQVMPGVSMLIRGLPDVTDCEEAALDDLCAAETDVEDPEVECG
T3 sequence (P51451 whole entry): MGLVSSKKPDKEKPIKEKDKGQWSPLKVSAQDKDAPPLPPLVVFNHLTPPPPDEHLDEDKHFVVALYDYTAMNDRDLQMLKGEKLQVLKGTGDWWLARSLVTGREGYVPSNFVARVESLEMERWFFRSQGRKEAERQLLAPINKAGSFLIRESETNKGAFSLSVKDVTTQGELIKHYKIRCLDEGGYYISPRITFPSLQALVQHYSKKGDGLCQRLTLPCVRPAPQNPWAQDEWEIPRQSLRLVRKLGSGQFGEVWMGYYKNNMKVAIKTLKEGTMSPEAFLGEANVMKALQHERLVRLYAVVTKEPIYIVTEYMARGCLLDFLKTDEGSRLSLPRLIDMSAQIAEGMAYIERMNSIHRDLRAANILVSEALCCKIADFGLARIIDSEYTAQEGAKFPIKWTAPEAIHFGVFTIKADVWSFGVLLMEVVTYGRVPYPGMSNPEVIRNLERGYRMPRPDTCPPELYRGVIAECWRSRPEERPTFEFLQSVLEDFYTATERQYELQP
T19 sequence (Q9H2X6 whole entry, species assumed): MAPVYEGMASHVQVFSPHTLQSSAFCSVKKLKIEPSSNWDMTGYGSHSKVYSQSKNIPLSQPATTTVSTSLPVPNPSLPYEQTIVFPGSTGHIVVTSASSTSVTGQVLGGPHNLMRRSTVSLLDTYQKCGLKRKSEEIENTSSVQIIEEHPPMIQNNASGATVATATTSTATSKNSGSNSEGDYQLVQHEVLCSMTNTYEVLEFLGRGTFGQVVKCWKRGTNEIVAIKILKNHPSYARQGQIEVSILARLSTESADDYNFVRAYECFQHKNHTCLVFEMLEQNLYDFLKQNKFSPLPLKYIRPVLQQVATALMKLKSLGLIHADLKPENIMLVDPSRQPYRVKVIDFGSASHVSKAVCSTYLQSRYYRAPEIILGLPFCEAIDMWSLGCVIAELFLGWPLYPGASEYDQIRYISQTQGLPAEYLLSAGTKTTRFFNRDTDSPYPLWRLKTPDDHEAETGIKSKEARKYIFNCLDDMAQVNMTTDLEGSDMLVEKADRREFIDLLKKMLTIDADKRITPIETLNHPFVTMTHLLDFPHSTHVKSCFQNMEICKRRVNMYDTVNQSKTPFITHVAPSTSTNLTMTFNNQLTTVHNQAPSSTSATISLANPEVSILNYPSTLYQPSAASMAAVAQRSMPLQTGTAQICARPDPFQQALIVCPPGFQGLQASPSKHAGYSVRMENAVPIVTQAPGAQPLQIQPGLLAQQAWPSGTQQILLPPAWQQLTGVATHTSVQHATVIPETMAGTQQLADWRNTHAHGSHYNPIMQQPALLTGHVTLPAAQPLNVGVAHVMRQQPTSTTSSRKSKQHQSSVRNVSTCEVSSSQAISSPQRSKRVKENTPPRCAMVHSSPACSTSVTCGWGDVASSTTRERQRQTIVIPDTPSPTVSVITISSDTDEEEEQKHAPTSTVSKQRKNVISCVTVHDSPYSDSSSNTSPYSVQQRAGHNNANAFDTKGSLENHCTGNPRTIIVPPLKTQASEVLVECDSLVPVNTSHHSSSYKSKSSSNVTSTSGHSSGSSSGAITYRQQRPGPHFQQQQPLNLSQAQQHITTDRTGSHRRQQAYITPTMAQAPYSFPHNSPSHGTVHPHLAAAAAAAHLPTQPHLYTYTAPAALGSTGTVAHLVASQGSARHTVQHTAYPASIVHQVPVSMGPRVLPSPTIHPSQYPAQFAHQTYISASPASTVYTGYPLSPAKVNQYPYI

O=C(N/N=C1\CCc2c(Cl)ccc(O)c21)c1cccc(S(=O)(=O)N2CCOCC2)c1 [ZY0511, (E)‐N'‐(2, 3‐dihydro‐1H‐inden‐1‐ylidene) benzohydrazides]
Activation rate [1]: 6% | IC50 [2]: 9.59 µM | inhibition at 1 µM ([2]; ZY0511 1 µM, read-out: Inhibition rate): 62% | inhibition at 1 µM [3]: 29% | activation at 1 µM [4]: 2% | inhibition at 1 µM [5]: 12% | inhibition at 1 µM [6]: 13% | inhibition at 1 µM [7]: 5% | inhibition at 1 µM [8]: 6% | Activation rate [9]: 5% | Activation rate [10]: 2% | inhibition at 1 µM [11]: 2% | inhibition at 1 µM [12]: 20% | inhibition at 1 µM [13]: 14% | inhibition at 1 µM [14]: 47% | inhibition at 1 µM [15]: 24% | inhibition at 1 µM [16]: 11% | inhibition at 1 µM [17]: 8% | inhibition at 1 µM [18]: 7% | inhibition at 1 µM [19]: 13% | inhibition at 1 µM [20]: 30% | inhibition at 1 µM [21]: 15% | inhibition at 1 µM [22]: 6% | inhibition at 1 µM [23]: 35% | activation at 1 µM [24]: 2% | inhibition at 1 µM [25]: 20% | inhibition at 1 µM [26]: 2% | activation at 1 µM [27]: 2% | inhibition at 1 µM [28]: 8% | inhibition at 1 µM [29]: 15% | inhibition at 1 µM [30]: 10% | activation at 1 µM [31]: 4% | activation at 1 µM [32]: 2% | inhibition at 1 µM [33]: 2% | inhibition at 1 µM [34]: 4% | inhibition at 1 µM [35]: 1% | inhibition at 1 µM [36]: 50% | activation at 1 µM [37]: 11% | inhibition at 1 µM [38]: 0% | activation at 1 µM [39]: 2% | inhibition at 1 µM [40]: 7% | inhibition at 1 µM [41]: 11%
